Our source for the IC50 values is US11905324B2, “Fluorescent fusion polypeptide capable of detecting phosphorylation of cellular membrane receptors by GRKs (G-protein receptor kinases) and/or receptor tyrosine kinases (RTKs)” (Innovative Technologies in Biological Systems SL, priority 2017, dated 2024).

In this experiment the target is T1, NK1 receptor (Homo sapiens, UniProt P25103).
T1 construct: expressed in transfected cells
The experiment is described as follows: NK1-Red ß-ARRNomad biosensor cell line inhibition assay (co-treatment with Substance P). Type of experiment: cell-based. The note with it: co-treated with Substance P 100 nM, 24 h, BD PATHWAY 855; read-out: Ic50 (inhibition of NK1 receptor, biosensor change of localization). As to the method: The Ic50 for L733,060 was Approx. 1.84×10^−7M after a treatment of 24 h with the agonist.

SMILES strings stand for the structures.

T1 sequence (P25103 whole entry, species assumed): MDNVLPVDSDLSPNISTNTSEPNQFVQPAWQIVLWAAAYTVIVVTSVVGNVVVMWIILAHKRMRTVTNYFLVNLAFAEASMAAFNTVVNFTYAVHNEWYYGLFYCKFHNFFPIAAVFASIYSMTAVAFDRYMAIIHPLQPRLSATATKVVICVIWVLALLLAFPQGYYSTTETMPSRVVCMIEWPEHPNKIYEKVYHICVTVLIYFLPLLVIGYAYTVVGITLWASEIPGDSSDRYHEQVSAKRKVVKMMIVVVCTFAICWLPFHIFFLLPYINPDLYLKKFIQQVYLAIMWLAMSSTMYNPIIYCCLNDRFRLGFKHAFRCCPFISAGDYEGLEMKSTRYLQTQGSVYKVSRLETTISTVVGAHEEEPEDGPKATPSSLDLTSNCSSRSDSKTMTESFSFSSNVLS

As to `FC(F)(F)c1cc(CO[C@H]2CCCN[C@H]2c2ccccc2)cc(C(F)(F)F)c1` [L733,060], the half-maximal inhibitory concentration (IC50) was approximately 0.184 µM.
